Data on 2 compounds can be found in publication PMC7802073, “Small Molecule Inhibitors of the Bacterioferritin (BfrB)–Ferredoxin (Bfd) Complex Kill Biofilm-Embedded Pseudomonas aeruginosa Cells” (ACS Infectious Diseases, 2020).

Holding throughout (format): cell-based, Pseudomonas aeruginosa
Experiment [1] concerns Pellicles of P. aeruginosa PAO1 expressing EYFP. The experiment can be described thus: Pellicle biofilm assay, CLSM imaging and COMSTAT viable biomass. To be noted: 24 h, approximately 1.2× IC50 (KM-5-25 80 μM, KM-5-66 50 μM). As to the method: Pellicle biofilms of EYFP-expressing P. aeruginosa PAO1 or clinical isolates were grown in PI media supplemented with 20 μM Fe. Starter cultures were diluted to OD600 = 0.001 in 4 mL media, placed in 35 × 10 mm Petri dishes and incubated statically at 30 °C for 48 h. The pellicles were transferred onto circular (1.5 cm diameter) glass coverslips by gently allowing the surface of a coverslip to contact a pellicle. The pellicle-adhered coverslip was washed in PBS and then deposited on top of 1.5 mL AB challenge media contained in a well of a 12-well microplate, with the pellicle exposed to the media. […] The coverslip-adhered pellicles were exposed to challenge media at 30 °C for 24 h, changing the challenge media every 12 h by transferring the pellicle-adhered coverslip to a new plate containing prewarmed challenge media.
Excess fluorescent dye was washed with PBS, the coverslip was mounted on a glass slide using 5 μL SlowFade (Invitrogen Life Technologies) and the edges sealed with fingernail polish. CLSM image stacks (z-step size of 0.3 μm) were acquired with the aid of a Leica TCS SP8 microscope, as described above. Quantitative analysis was performed by determination of pellicle biomass using COMSTAT[55] and the Otsu method of automatic thresholding.[86]

Experiment [2] deals with P. aeruginosa PAO1 cells dispersed from pellicles. As to the kind of experiment: Total intracellular iron in biofilm-embedded cells. To be noted: 2-day old pellicles, 24 h, KM-5-25 40 μM or KM-5-66 20 μM. As to the method:
Pellicle biofilms were grown for 48 h as described above. The pellicles were transferred onto square (2 × 2 cm) glass coverslips by gently contacting the pellicle with the coverslip. […] After the zirconia beads had sedimented, a 100 μL aliquot was sampled from the cell suspension for plating and enumeration of viable cells and a 14 mL sample was used to harvest the cells by centrifugation (20 min, 400 rpm). The cell pellet was resuspended in 1 mL PBS, transferred to a 1.5 mL microcentrifuge tube, centrifuged for 10 min at 12 500 rpm at 4 °C and the cell pellet frozen at −80 °C. The frozen cells were subjected to three freeze–thaw cycles and then lysed by addition of 200 μL of lysis buffer (50 mM Tris-HCl buffer (pH 8.0) containing 10% (v/v) glycerol, 20 mg/mL lysozyme, 0.2 mg/mL DNase, 0.1 M NaCl, 1 mM MgSO4 and 1% (v/v) Triton-X100) and incubated at ambient temperature (30 min) and at 37 °C (30 min). […] Levels of total intracellular iron were determined as reported previously:[23],[87] […] The iron concentration was measured from the absorbance of the Fe^2+–Ferene S complex (ε593 = 34.5 mM^–1 cm^–1),[88] normalized by the viable cell counts and reported as Fe atoms per cell.

Experiment [3] deals with iron stored in BfrB in pellicle-embedded P. aeruginosa PAO1 cells. The experiment can be described thus: Iron stored in BfrB, native PAGE stained with Ferene S, densitometry. To be noted: 2-day old pellicles, 24 h, KM-5-25 40 μM or KM-5-66 20 μM.
For experiment [4], the system named is P. aeruginosa clinical isolate PA_1076058. The experiment can be described thus: Viable cells (CFU/mL) dispersed from pellicle biofilms of a clinical isolate. As to conditions: PA_1076058 pellicles, 24 h, 1.2× IC50 (KM-5-25 80 μM, KM-5-66 50 μM). The method, then:
(§1) Pellicle biofilms were grown as described above.

In experiment [5] the test system is P. aeruginosa clinical isolate PA_1081725. The experiment is described as above. As to conditions: PA_1081725 pellicles, 24 h, 1.2× IC50 (KM-5-25 80 μM, KM-5-66 50 μM). The method, then:
as §1

As to `O=C1NC(=O)c2c(NCCCc3cc(O)cc(Cl)c3)cccc21` [KM-5-66, 4-((3-(3-Chloro-5-hydroxyphenyl)propyl)amino)isoindoline-1,3-dione], in experiment [1], the “cells in the pellicle killed (COMSTAT)” value is on record as approximately 85%. In addition, in experiment [2], the “total intracellular iron normalized to viable cell counts, relative to untreated biofilms” value is approximately 2.5 fold. In addition, the “iron in BfrB relative to cells in untreated pellicles (Ferene S band peak area)” value in experiment [3] is given as approximately 3 fold. The “reduction of viable cells” value in experiment [4] and in experiment [5] was “approximately 80%” in each case.
In the case of `O=C1NC(=O)c2c(NCc3cc(Cl)ccc3O)cccc21` [KM-5-25, 4-((5-Chloro-2-hydroxybenzyl)amino)isoindoline-1,3-dione], the “cells in the pellicle killed (COMSTAT)” value in experiment [1] is reported as approximately 85%. The “total intracellular iron normalized to viable cell counts, relative to untreated biofilms” value in experiment [2] was approximately 2.5 fold. Also, the “iron in BfrB relative to cells in untreated pellicles (Ferene S band peak area)” value in experiment [3] is reported as approximately 3 fold. Further, the “reduction of viable cells” value in experiment [4] and in experiment [5] was “approximately 80%” throughout.
